Read-outs that look alike come from different tables or passages of the source.
Experiments:
[1] = biological target: T1, CFTR in F508del/MF-HBE cells (Homo sapiens, UniProt P13569, DEL508-508); assay: Ussing chamber assay of CFTR-mediated short-circuit currents (identification of potentiator compounds); type: cell-based; conditions: potentiator incubated 18-24 hours at 37° C. in combination with 10 μM corrector, in the presence of 20% human serum, CFTR-mediated ISC
T1 construct: human bronchial epithelial (HBE) cells derived from CF subjects heterozygous for F508del and a minimal function CFTR mutation; endogenous in cells; host or cells: primary human bronchial epithelial cells from CF subjects (F508del/MF-HBE)
T1 sequence (P13569 with tags, fused parts or gaps DEL508-508): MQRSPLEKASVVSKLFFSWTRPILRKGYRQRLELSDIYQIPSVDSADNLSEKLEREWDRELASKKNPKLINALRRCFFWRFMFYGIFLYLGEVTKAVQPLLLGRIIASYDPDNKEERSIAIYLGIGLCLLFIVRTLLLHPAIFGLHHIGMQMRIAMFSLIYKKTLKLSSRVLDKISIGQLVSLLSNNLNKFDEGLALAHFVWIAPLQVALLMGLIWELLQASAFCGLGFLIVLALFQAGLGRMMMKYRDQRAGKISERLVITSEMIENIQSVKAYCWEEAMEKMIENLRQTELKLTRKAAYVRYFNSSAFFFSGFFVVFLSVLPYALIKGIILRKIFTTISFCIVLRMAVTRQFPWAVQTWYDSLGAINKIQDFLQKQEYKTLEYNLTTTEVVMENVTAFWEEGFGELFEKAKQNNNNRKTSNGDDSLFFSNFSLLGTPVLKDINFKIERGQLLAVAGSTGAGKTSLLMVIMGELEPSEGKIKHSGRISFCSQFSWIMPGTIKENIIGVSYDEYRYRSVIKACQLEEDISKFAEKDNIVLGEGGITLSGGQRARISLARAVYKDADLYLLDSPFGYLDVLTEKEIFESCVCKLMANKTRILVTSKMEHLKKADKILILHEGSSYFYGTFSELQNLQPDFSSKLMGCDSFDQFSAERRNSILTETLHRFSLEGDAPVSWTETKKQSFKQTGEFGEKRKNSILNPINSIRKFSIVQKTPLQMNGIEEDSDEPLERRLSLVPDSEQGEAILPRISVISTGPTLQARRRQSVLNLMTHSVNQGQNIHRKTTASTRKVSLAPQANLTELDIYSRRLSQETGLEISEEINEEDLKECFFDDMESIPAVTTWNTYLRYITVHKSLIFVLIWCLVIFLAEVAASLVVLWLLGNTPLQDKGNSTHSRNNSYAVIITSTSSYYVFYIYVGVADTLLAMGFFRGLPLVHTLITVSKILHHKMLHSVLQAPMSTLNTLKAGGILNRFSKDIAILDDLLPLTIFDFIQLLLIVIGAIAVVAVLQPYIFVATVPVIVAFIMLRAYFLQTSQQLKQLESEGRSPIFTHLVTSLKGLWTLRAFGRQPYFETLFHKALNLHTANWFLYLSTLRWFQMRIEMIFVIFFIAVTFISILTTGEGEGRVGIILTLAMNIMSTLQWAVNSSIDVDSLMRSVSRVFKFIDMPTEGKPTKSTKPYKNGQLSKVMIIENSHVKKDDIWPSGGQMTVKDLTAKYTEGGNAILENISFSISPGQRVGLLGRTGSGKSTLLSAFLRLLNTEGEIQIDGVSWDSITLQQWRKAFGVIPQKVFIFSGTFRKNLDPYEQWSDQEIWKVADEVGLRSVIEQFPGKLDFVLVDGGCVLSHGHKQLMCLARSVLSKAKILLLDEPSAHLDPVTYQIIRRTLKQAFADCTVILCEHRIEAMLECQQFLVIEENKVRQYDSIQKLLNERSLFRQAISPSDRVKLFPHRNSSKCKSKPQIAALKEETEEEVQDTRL
Method in brief: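 F508del/MF-HBE cultures were preincubated 18-24 h at 37° C with potentiator plus 10 μM of a fixed corrector compound in 20% human serum; compounds were kept present during measurement. ISC was recorded under voltage clamp (0 mV, 37° C, amiloride apical) and taken as the 20 μM forskolin peak minus the current after inhibitor cocktail.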

Question: For CC(C)(C)OC(=O)Nc1cc(C(F)(F)F)c2nc1-c1nnc(o1)C(OCc1ccccc1)(C(F)(F)F)CCCCN(C1CC(F)(F)C1)C2=O (stereo not shown), which ring closure, isolated yield (from CC(C)(C)OC(=O)Nc1cc(C(F)(F)F)c(C(=O)O)nc1-c1nnc(C(CCCCNC2CC(F)(F)C2)(OCc2ccccc2)C(F)(F)F)o1, amide bond, 13-membered ring, HATU/DIEA, DMF, 2.67 mM, 1.0 h) is on record?
Answer: 33%

Question: With CC(C)N1CCCCC(OCc2ccccc2)(C(F)(F)F)C2=NN=C(O2)c2nc(c(C(F)(F)F)cc2N)CC1=O (stereo not shown) as the compound, how does the ring closure, isolated yield (from CC(C)NCCCCC(OCc1ccccc1)(c1nnc(-c2nc(CC(=O)O)c(C(F)(F)F)cc2N)o1)C(F)(F)F, amide bond, 14-membered ring, T3P/DIEA, EtOAc/NMP, 33.9 mM, 2.0 h) read?
Answer: 23%

Question: For CN1CCCCC(OCc2ccccc2)(C(F)(F)F)C2=NN=C(O2)c2nc(c(C(F)(F)F)cc2N)CC1=O (stereo not shown), which ring closure, isolated yield (from CNCCCCC(OCc1ccccc1)(c1nnc(-c2nc(CC(=O)O)c(C(F)(F)F)cc2N)o1)C(F)(F)F, amide bond, 14-membered ring, T3P/DIEA, EtOAc/NMP, 35.7 mM, 5.0 h) is on record?
Answer: 45%

Question: For Nc1cc(C(F)(F)F)c2nc1-c1nnc(o1)C(OCc1ccccc1)(C(F)(F)F)CCCCN(Cc1ccccc1)C(=O)C2 (stereo not shown), which ring closure, isolated yield (from Nc1cc(C(F)(F)F)c(CC(=O)O)nc1-c1nnc(C(CCCCNCc2ccccc2)(OCc2ccccc2)C(F)(F)F)o1, amide bond, 14-membered ring, T3P/DIEA, EtOAc/NMP, 31.5 mM, 2.0 h) is on record?
Answer: 66%

Question: Which ring closure, isolated yield (from C=CCCC(C#N)c1nc(-c2nnc(C(O)(c3cccc(I)c3)C(F)(F)F)o2)c(NC(=O)OC(C)(C)C)cc1C(F)(F)F, cc_pd bond, 15-membered ring, Pd(OAc)2/P(o-tol)3/Et3N, MeCN, 9.4 mM, 80.0 °C) does the source give for CC(C)(C)OC(=O)Nc1cc(C(F)(F)F)c2nc1-c1nnc(o1)C(O)(C(F)(F)F)c1cccc(c1)C=CCCC2C#N (mixture of isomers) here?
Answer: 93%

Question: With CC(C)(C)OC(=O)Nc1cc(C(F)(F)F)c2nc1-c1nnc(o1)C(OCc1ccccc1)(C(F)(F)F)CCC=CCCC2 (mixture of isomers) as the compound, how does the ring closure, isolated yield (from C=CCCCc1nc(-c2nnc(C(CCC=C)(OCc3ccccc3)C(F)(F)F)o2)c(NC(=O)OC(C)(C)C)cc1C(F)(F)F, rcm bond, 14-membered ring, Grubbs II (22 mol%), toluene, 2.63 mM, 100.0 °C) read?
Answer: 39%

Question: For COC1CCC=Cc2ccc(F)c(c2)C(O)(C(F)(F)F)C2=NN=C(O2)c2nc1c(C(F)(F)F)cc2NC(=O)OC(C)(C)C (mixture of isomers), which ring closure, isolated yield (from C=CCCC(OC)c1nc(-c2nnc(C(O)(c3cc(I)ccc3F)C(F)(F)F)o2)c(NC(=O)OC(C)(C)C)cc1C(F)(F)F, cc_pd bond, 15-membered ring, Pd(OAc)2/P(o-tol)3/Et3N, MeCN, 6.3 mM, 80.0 °C, 16.0 h) is on record?
Answer: 62%

Question: For Nc1cc(C(F)(F)F)c2nc1-c1nnc(o1)[C@@](O)(C(F)(F)F)CCCCCN(Cc1ccnc(OC(F)F)c1)C2=O [Compound 269, (6R)-17-amino-12-[[2-(difluoromethoxy)-4-pyridyl]methyl]-6-hydroxy-6,15-bis(trifluoromethyl)-19-oxa-3,4,12,18-tetrazatricyclo [12.3.1.12,5] nonadeca-1(18),2,4,14,16-pentaen-13-one], which EC50 [1] is on record?
Answer: > 1000 nM

Question: With Nc1cc(C(F)(F)F)c2nc1-c1nnc(o1)[C@@](O)(C(F)(F)F)CCCCCN(Cc1ccnc(OC3CCC3)c1)C2=O [Compound 270, (6R)-17-amino-12-[[2-(cyclobutoxy)-4-pyridyl]methyl]-6-hydroxy-6,15-bis(trifluoromethyl)-19-oxa-3,4,12,18-tetrazatricyclo [12.3.1.12,5] nonadeca-1(18),2,4,14,16-pentaen-13-one] as the compound, how does the EC50 [1] read?
Answer: < 500 nM

Question: Which EC50 [1] does the source give for N#Cc1cccc(CN2CCCCC[C@](O)(C(F)(F)F)C3=NN=C(O3)c3nc(c(C(F)(F)F)cc3N)C2=O)c1 [Compound 271, 3-[[(6R)-17-amino-6-hydroxy-13-oxo-6,15-bis(trifluoromethyl)-19-oxa-3,4,12,18-tetrazatricyclo[12.3.1.12,5]nonadeca-1(18),2,4,14,16-pentaen-12-yl]methyl]benzonitrile] here?
Answer: < 500 nM
